From BindingDB's records for doi:10.7270/Q25B01BH (D3R/Abbott, 2015)

The compounds below were run against Cyclin-dependent kinase 2 (Homo sapiens, UniProt P24941) (assay: OctetRed_Method1).
From the text: OctetRed_Method1

Kd, > 100 µM:
Cc1cc(C)c(S(=O)(=O)NCc2ccccn2)cc1C [CS105]
COc1ccc(CC(NC(C)=O)c2ccc3cccnc3c2O)cc1OC (centres undefined) [CS32]
CCOc1ccc(C(C)=O)cc1Cc1c(O)nc(N)nc1O [CS55]
CCn1c(SCC(=O)Nc2cccc(C(C)=O)c2)nnc1-c1ccncc1 [CS66]
CSc1ccc(S(=O)(=O)NCc2ccccn2)cc1 [CS230]
COc1cc([N+](=O)[O-])ccc1NC(=O)CN1CCOCC1 [CS142]
COc1cc(-c2nnc(SCC(N)=O)n2C)cc(OC)c1OC [CS175]
O=C(CSc1nnc(-c2ccccc2O)n1-c1ccccc1)Nc1cccc(C(=O)O)c1 [CS166]
COc1ccccc1NC(=O)CSc1nncn1C [CS198]
O=C(CSc1nnc(-c2ccncc2)o1)Nc1ccc(F)cc1 [CS234]
CCOc1ccc2nc(SCC(=O)Nc3c(C)n(C)n(-c4ccccc4)c3=O)sc2c1 [CS49]
O=S(=O)(NCc1ccccn1)c1cc(Cl)c(Cl)cc1Cl [CS104]
Cc1ccc(NS(=O)(=O)c2cc(C(=O)Nc3ccccc3C(=O)N3CCOCC3)ccc2Cl)c(C)c1 [CS238]
CCn1c(SCC(=O)Nc2ccccc2OC)nnc1-c1ccco1 [CS119]
COc1ccc(NC(=O)CN2CCOCC2)c([N+](=O)[O-])c1 [CS189]
COc1ccccc1-n1nnnc1SCC(=O)Nc1ccccc1SC [CS197]
CN(CC(=O)Nc1ccccc1C(=O)N1CCCC1)CS(=O)(=O)c1ccc(Br)cc1 [CS130]
NC(=O)c1ccc(NCCCN2CCOCC2)c([N+](=O)[O-])c1 [CS69]
O=S(=O)(NCc1ccccn1)c1ccc(Cl)c(Cl)c1Cl [CS116]
COc1cccc(-n2nnnc2SCC(=O)Nc2c(C)cc(C)cc2C)c1 [CS81]
COC(=O)c1ccccc1Oc1nc(NC(C)C)nc(NC(C)C)n1 [CS92]
COC(=O)c1ccccc1NC(=O)CSc1nnc(-c2ccc(OC)cc2)n1C [CS72]
O=C(Nc1ccc(S(=O)(=O)Nc2ncccn2)cc1)c1c(Cl)cccc1Cl [CS93]
COC(=O)c1ccc(NC(=O)CSc2nnc(-c3ccc(NC(C)=O)cc3)n2C)cc1 [CS59]
COc1ccc(NC(=O)c2ccco2)cc1NC(=O)c1cccnc1 [CS85]
O=C(COc1ccccc1[N+](=O)[O-])Nc1ccccc1N1CCOCC1 [CS46]
O=C(Cn1ccc([N+](=O)[O-])n1)N1CCCc2ccccc21 [CS154]
COc1ccc(NC(=O)CSc2nnc(-c3ccncc3)[nH]2)cc1 [CS41]
COc1cc(OC)c(NC(=O)CSc2nnc(-c3ccccc3)n2C)cc1Cl [CS47]
COc1cc(OC)c(NC(=O)CSc2nnc(-c3ccncc3)n2C)cc1Cl [CS96]
CC(Sc1nc2ccccc2[nH]1)C(=O)Nc1ccc(S(N)(=O)=O)cc1 (centres undefined) [CS140]
Cn1nc([N+](=O)[O-])nc1Oc1ccccc1C(=O)N1CCOCC1 [CS231]
COC(=O)c1ccccc1NC(=O)CSc1nnc(C23C[C@H]4C[C@@H](C2)C[C@@H](C3)C4)n1C [CS38]
CCn1c(SCC(=O)Nc2cccc(OC)c2)nnc1-c1ccncc1 [CS95]
CN1CCN(C(=O)c2ccccc2N(Cc2ccccc2)S(C)(=O)=O)CC1 [CS76]
COc1ccc(OCC(=O)Nc2cc(-c3nn4c(C)nnc4s3)ccc2C)cc1 [CS36]
O=C(O)c1cccc(CSc2nnc(-c3ccncc3)o2)c1 [3-({[5-(pyridin-4-yl)-1,3,4-oxadiazol-2-yl]sulfanyl}methyl)benzoic acid]
CS(=O)(=O)N(CC(=O)Nc1ccccc1C(=O)N1CCOCC1)c1ccc(Cl)cc1 [CS160]
CCc1ccccc1NC(=O)CSc1nnc(-c2cccc(OC)c2)n1C [CS169]
Cc1nc2ncnn2c(O)c1NS(=O)(=O)c1ccc(Br)cc1 [CS237]
Cc1ccc(S(=O)(=O)Nc2ccccc2CNc2cnc3ccccc3c2)cc1 [CS100]
O=C(CSc1nnc(-c2ccc([N+](=O)[O-])cc2)n1-c1ccccc1)N1CCOCC1 [CS58]
COc1ccc(C(=O)CSc2nnc(-c3ccc(OC)c(OC)c3)n2-c2ccccc2)cc1 [CS67]
COc1ccccc1NC(=O)CSc1nnc(-c2ccc([N+](=O)[O-])cc2)n1-c1ccccc1 [CS82]
CN1CCN(C(=O)CN(C)S(=O)(=O)c2ccc3ccccc3c2)CC1 [CS173]
COC(=O)c1ccc(NC(=O)CSc2nnnn2-c2ccccc2OC)cc1 [CS77]
COc1ccc2[nH]cc(CCNC(=O)Nc3ccc(Cl)c(Cl)c3)c2c1 [CS236]
O=C(Cn1nc(-c2cccc([N+](=O)[O-])c2)c2ccccc2c1=O)NCC1CCCO1 (centres undefined) [CS102]
Cc1cccc(NS(=O)(=O)c2cc(C(=O)Nc3ccccc3C(=O)N3CCOCC3)ccc2Cl)c1 [CS232]
O=S(=O)(NCCSc1ccccn1)c1ccc(Br)cc1 [CS33]
Cc1cc(C)c(S(=O)(=O)N(C)CC(=O)N2CCC(C(N)=O)CC2)c(C)c1 [CS152]
Cn1c(COc2cccc3cccnc23)nnc1SCC(N)=O [CS64]
COc1ccccc1NC(=O)CSc1nnc(-c2ccccc2Cl)n1-c1ccccc1 [CS222]
Cn1c(Cc2ccccc2)nnc1Sc1ccc([N+](=O)[O-])cc1C(=O)N1CCOCC1 [CS188]
COc1ccc(NC(=O)CSc2nnnn2C)cc1 [CS53]
COc1ccc(-c2nnc(SCC(=O)Nc3c(F)cc(F)cc3Br)n2C)cc1 [CS78]
COc1ccc(NC(=O)CCSc2nnc3scc(-c4ccc(C)cc4)n23)cc1 [CS37]
COc1cc(NC(=O)CSc2nncn2C)cc(OC)c1OC [CS202]
Cc1ccnc(NS(=O)(=O)c2ccc(NC(=O)c3cncc(Br)c3)cc2)n1 [CS165]
Cc1nonc1OCCNc1cc(N2CCOCC2)ccc1[N+](=O)[O-] [CS204]
O=C(Cn1cnc([N+](=O)[O-])n1)Nc1ccc(N2CCOCC2)c(Cl)c1 [CS200]
COc1ccccc1NC(=O)CSc1nnc(-c2ccc(F)cc2)n1C [CS98]
CS(=O)(=O)c1ccc(NC(=O)CSc2nnc(-c3ccccc3F)n2-c2ccccc2)cc1 [CS74]
O=C(Cc1ccccc1[N+](=O)[O-])Nc1ccccc1C(=O)N1CCOCC1 [CS209]
CC(=O)Nc1ccc(S(=O)(=O)Nc2c(C)nn(-c3ccccc3)c2C)cc1 [CS70]
CCc1nnc(NS(=O)(=O)c2ccc(NC(=O)c3ccc(F)cc3)cc2)s1 [CS31]
COc1ccc([N+](=O)[O-])cc1NC(=O)C(C)Oc1ccccc1C (centres undefined) [CS177]
Cc1c(NS(=O)(=O)c2cccc3nonc23)c(=O)n(-c2ccccc2)n1C [CS150]
CC1CCN(S(=O)(=O)c2ccc(Cl)c(C(=O)Nc3ccc(C(=O)O)cc3)c2)CC1 [CS34]
COc1ccc2c(C)nc(Nc3nc(C)cc(O)n3)nc2c1
CCOC(=O)c1cnc(Nc2nc3ccccc3o2)nc1CN1CCN(c2ccccc2)CC1 [CS196]
O=C(CC1OCCN(Cc2ccccc2)C1=O)Nc1ccc2c(c1)OCCO2 (centres undefined) [CS208]
COc1cc(OC)c(NC(=O)CSc2nnc(-c3ccncc3)n2-c2ccccc2)cc1Cl [CS109]
O=C1c2ccccc2C(=O)N1CCCc1nc(-c2cccc([N+](=O)[O-])c2)no1 [CS148]
CN1CCN(C(=O)CN(c2cc(C(F)(F)F)ccc2Cl)S(=O)(=O)c2ccccc2)CC1 [CS65]
COc1ccc(-n2c(SCC(N)=O)nnc2-c2cccs2)cc1 [CS73]
COc1ccccc1CNC(=O)CSc1nnnn1-c1c(C)cccc1C [CS184]
CC(=O)c1cccc(NC(=O)CSc2nnc(-c3cc4ccccc4cc3O)n2C)c1 [CS110]
COc1cccc(NC(=O)CSc2nnnn2C)c1 [CS27]
O=C(Cn1c(NCCO)nc2ccccc21)c1cccc([N+](=O)[O-])c1 [CS80]
CCn1c(SCC(=O)Nc2ccccc2OC)nnc1-c1c[nH]c2ccccc12 [CS213]
Cc1c(NC(=O)C2CCCN2S(=O)(=O)c2ccccc2)c(=O)n(-c2ccccc2)n1C (centres undefined) [CS68]
CC(=O)Nc1cccc(-c2nnc(SCC(=O)Nc3ccc(C(C)=O)cc3)n2C)c1 [CS71]
COc1ccc(C(=O)C(C)Oc2cccc(NC(=O)c3cccc([N+](=O)O)c3)c2)cc1 (centres undefined) [CS112]
